Reference: patent publication US8906904B2, “Alkoxy pyrazoles as soluble guanylate cyclase activators” (Boehringer Ingelheim International GmbH, priority 2012, dated 2014)

Target: T1, human soluble guanylate cyclase alpha 1 and beta 1 subunits (sGC) (Homo sapiens, UniProt Q02108+Q02153)
T1 construct: expressed in transfected cells; host or cells: Chinese hamster ovary (CHO) cells, stably transfected
T1 sequence (Q02108 1-690): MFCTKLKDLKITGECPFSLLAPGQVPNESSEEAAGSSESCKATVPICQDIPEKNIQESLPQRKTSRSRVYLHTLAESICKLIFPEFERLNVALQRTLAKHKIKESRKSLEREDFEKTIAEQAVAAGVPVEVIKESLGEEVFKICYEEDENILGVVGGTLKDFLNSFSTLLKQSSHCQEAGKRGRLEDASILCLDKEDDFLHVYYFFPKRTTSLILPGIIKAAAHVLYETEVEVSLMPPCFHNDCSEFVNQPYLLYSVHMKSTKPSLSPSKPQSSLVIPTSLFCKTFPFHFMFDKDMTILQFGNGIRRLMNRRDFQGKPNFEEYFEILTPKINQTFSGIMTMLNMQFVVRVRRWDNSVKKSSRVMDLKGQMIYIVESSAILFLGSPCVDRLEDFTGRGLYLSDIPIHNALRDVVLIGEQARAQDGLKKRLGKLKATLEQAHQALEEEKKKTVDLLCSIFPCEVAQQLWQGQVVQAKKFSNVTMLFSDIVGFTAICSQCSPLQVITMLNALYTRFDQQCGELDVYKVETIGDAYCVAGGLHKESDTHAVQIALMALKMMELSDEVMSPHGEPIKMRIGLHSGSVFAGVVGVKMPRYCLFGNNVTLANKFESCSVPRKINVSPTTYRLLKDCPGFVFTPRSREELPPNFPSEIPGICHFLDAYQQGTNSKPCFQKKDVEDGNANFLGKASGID
T1 sequence (Q02153 1-619): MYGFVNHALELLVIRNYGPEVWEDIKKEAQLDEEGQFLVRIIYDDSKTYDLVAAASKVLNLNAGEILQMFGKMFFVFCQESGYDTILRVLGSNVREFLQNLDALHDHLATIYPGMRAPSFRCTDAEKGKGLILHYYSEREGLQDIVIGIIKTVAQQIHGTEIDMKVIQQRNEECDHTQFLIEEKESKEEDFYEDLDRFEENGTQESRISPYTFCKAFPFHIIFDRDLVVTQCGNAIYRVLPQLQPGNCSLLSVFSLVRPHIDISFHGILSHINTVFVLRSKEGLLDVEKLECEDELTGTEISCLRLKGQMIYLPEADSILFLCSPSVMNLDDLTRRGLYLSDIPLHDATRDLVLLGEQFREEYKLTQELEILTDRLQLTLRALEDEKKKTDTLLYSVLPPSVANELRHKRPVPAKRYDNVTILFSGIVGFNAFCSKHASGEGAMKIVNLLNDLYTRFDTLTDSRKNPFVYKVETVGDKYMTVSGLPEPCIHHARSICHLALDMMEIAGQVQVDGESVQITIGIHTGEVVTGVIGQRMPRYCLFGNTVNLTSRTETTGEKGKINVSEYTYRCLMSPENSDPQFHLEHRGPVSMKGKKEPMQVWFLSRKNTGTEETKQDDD
Experiment: sGC cellular activator assay (cGMP, HTRF)
Type: cell-based
Conditions: CHO cells stably expressing human sGC alpha 1/beta 1, preincubated with 40 microM ODQ; cGMP readout; assay run with and without 50% human serum, Table 2 does not say which
In short: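 Heme-oxidized conditions: ODQ (40 microM, 1 h) pretreatment of CHO cells stably expressing human α1/β1 sGC, in buffer containing 0.1% BSA and IBMX.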

Structure (SMILES) | EC50 [nM]
CCOc1c(C(=O)O)cnn1-c1cccc(-c2cccc(C)c2OCc2ccc3c(c2C)CCN(C[C@H]2COCCO2)CC3)n1 [Compound 212] | 36
CCOc1c(C(=O)O)cnn1-c1cccc(-c2cccc(C)c2OCc2ccc3c(c2)CCCN(C2CCCOC2)C3)n1 (stereo not drawn) [Compound 245] | 280
CCOc1c(C(=O)O)cnn1-c1cccc(-c2cccc(C)c2OCc2ccc3c(c2C)CCN(C[C@@H]2CCCCO2)CC3)n1 [Compound 215] | 37
CCOc1c(C(=O)O)cnn1-c1cccc(-c2cccc(C)c2OCc2ccc3c(c2C)CCN(C[C@@H]2CCCO2)CC3)n1 [Compound 235] | 20
CCOc1c(C(=O)O)cnn1-c1cccc(-c2cccc(C)c2OCc2ccc3c(c2C)CCN(CC2(C)COC2)CC3)n1 [Compound 190] | 23
COc1c(C(=O)O)cnn1-c1cccc(-c2cccc(C)c2OCc2ccc3c(c2Cl)CCN(C2CCC2)C3)n1 [Compound 20] | 24
COc1c(C(=O)O)cnn1-c1cccc(-c2cc(C)cc(C)c2OCc2ccc3c(c2C)CCN(C2CCOCC2)C3)n1 [Compound 180] | 28
CCOc1c(C(=O)O)cnn1-c1cccc(-c2cccc(C)c2OCc2cc(C)c3c(c2)CCN(CC2(C)COC2)C3)n1 [Compound 200] | 20
COc1c(C(=O)O)cnn1-c1cccc(-c2cccc(C)c2OCc2ccc3c(c2C)CCN(C2COC2)C3)n1 [Compound 16] | 23
COc1c(C(=O)O)cnn1-c1cccc(-c2cccc(C)c2OCc2cc(F)c3c(c2)CCN([C@H]2CCOC2)C3)n1 [Compound 254] | 25
CCOc1c(C(=O)O)cnn1-c1cccc(-c2cccc(C)c2OCc2cc(C)c3c(c2)CCN(CC2COCCO2)C3)n1 (stereo not drawn) [Compound 243] | 16
COc1c(C(=O)O)cnn1-c1cccc(-c2cccc(C)c2OCc2ccc3c(c2Cl)CCN(CC(C)(C)C)C3)n1 [Compound 21] | 17
COc1c(C(=O)O)cnn1-c1cccc(-c2cccc(C)c2OCc2ccc3c(c2)C(C)(C)CN(C2CCOC2)C3)n1 (stereo not drawn) [Compound 217] | 35
COc1c(C(=O)O)cnn1-c1cccc(-c2ccccc2OCc2ccc3c(c2)CCN(C2CCOCC2)C3)n1 [Compound 209] | 200
COc1c(C(=O)O)cnn1-c1cccc(-c2cccc(C)c2OCc2ccc3c(c2C)CCN(C2CCOCC2)C3)n1 [Compound 27] | 14
COCC(C)N1CCc2cc(COc3c(C)cccc3-c3cccc(-n4ncc(C(=O)O)c4OC)n3)cc(C)c2C1 (stereo not drawn) [Compound 244] | 23
CCOc1c(C(=O)O)cnn1-c1cccc(-c2cccc(C)c2OCc2cc(C)c3c(c2)CCN(C(C)COC)C3)n1 (stereo not drawn) [Compound 210] | 19
CCOc1c(C(=O)O)cnn1-c1cccc(-c2cccc(C)c2OCc2ccc3c(c2C)CCN(C2CCOCC2)C3=O)n1 [Compound 194] | 87
COc1c(C(=O)O)cnn1-c1cccc(-c2cccc(C)c2OCc2ccc3c(c2)C(C)(C)CN(C2CCCOC2)C3)n1 (stereo not drawn) [Compound 218] | 62
COc1ccc(OCc2ccc3c(c2C)CCN(C2CCOCC2)C3)c(-c2cccc(-n3ncc(C(=O)O)c3OC)n2)c1 [Compound 182] | 370
COCC(C)N1CCc2cc(COc3c(C)cccc3-c3cccc(-n4ncc(C(=O)O)c4OC)n3)ccc2C1 (stereo not drawn) [Compound 23] | 52
COc1c(C(=O)O)cnn1-c1cccc(-c2cccc(C)c2OCc2cc(C)c3c(c2)CCN(C2COC2)C3)n1 [Compound 186] | 16
CCOc1c(C(=O)O)cnn1-c1cccc(-c2cccc(C)c2OCc2ccc3c(c2C)CCN(C[C@@H]2CCO2)CC3)n1 [Compound 228] | 14
CCOc1c(C(=O)O)cnn1-c1cccc(-c2cccc(C)c2OCc2ccc3c(c2)CCN(C2COC2)CC3)n1 [Compound 213] | 39

The next compounds have a lower EC50 than those just listed; values first:

EC50 [nM] | Structure (SMILES)
13 | CCOc1c(C(=O)O)cnn1-c1cccc(-c2cccc(C)c2OCc2ccc3c(c2C)CCN(C(C)COC)CC3)n1 (stereo not drawn) [Compound 196]
13 | COc1c(C(=O)O)cnn1-c1cccc(-c2cccc(C)c2OCc2cc(F)c3c(c2)CCN([C@@H]2CCOC2)C3)n1 [Compound 253]
13 | CCOc1c(C(=O)O)cnn1-c1cccc(-c2cccc(C)c2OCc2ccc3c(c2C)CCN([C@@H]2CCOC2)CC3)n1 [Compound 227]
12 | CCOc1c(C(=O)O)cnn1-c1cccc(-c2cccc(C)c2OCc2ccc3c(c2C)CCN(C[C@H]2CCOC2)C3)n1 [Compound 193]
12 | CCOc1c(C(=O)O)cnn1-c1cccc(-c2cccc(C)c2OCc2ccc3c(c2C)CCN(C[C@@H]2CCOC2)C3)n1 [Compound 189]
12 | COc1c(C(=O)O)cnn1-c1cccc(-c2cccc(C)c2OCc2cc(F)c3c(c2)CCN(C2CCOCC2)C3)n1 [Compound 201]
11 | CCOc1c(C(=O)O)cnn1-c1cccc(-c2cccc(C)c2OCc2ccc3c(c2C)CCN(C[C@H]2CCCO2)CC3)n1 [Compound 233]
11 | COc1c(C(=O)O)cnn1-c1cccc(-c2cccc(C)c2OCc2cc(C)c3c(c2)CCN(C2CCOC2)C3)n1 (stereo not drawn) [Compound 242]
10 | COc1c(C(=O)O)cnn1-c1cccc(-c2cccc(C)c2OCc2ccc3c(c2F)CCN([C@@H]2CCOC2)C3)n1 [Compound 252]
10 | CCOc1c(C(=O)O)cnn1-c1cccc(-c2cccc(C)c2OCc2ccc3c(c2C)CCN([C@H]2CCOC2)CC3)n1 [Compound 225]
9.5 | CCOc1c(C(=O)O)cnn1-c1cccc(-c2cccc(C)c2OCc2ccc3c(c2C)CCN(C[C@H]2CCCCO2)C3)n1 [Compound 232]
9.2 | COc1c(C(=O)O)cnn1-c1cccc(-c2cccc(C)c2OCc2ccc3c(c2C)CCN([C@@H]2CCOC2)CC3)n1 [Compound 207]
8.6 | COc1c(C(=O)O)cnn1-c1cccc(-c2cccc(C)c2OCc2ccc3c(c2)CCN(C[C@@H]2CCOC2)C3)n1 [Compound 188]
8.5 | COc1c(C(=O)O)cnn1-c1cccc(-c2cccc(C)c2OCc2ccc3c(c2C)CCN(C[C@@H]2CCCO2)CC3)n1 [Compound 223]
8 | COc1c(C(=O)O)cnn1-c1cccc(-c2cccc(C)c2OCc2ccc3c(c2Cl)CCN(C2CCOCC2)C3)n1 [Compound 18]
8 | CCOc1c(C(=O)O)cnn1-c1cccc(-c2cccc(C)c2OCc2cc(C)c3c(c2)CCN(C2CCOC2)C3)n1 (stereo not drawn) [Compound 241]
7.9 | COc1c(C(=O)O)cnn1-c1cccc(-c2cccc(C)c2OCc2cc(C)c3c(c2)CCN(CC2COCCO2)C3)n1 (stereo not drawn) [Compound 240]
7 | COc1c(C(=O)O)cnn1-c1cccc(-c2cccc(C)c2OCc2ccc3c(c2F)CCN([C@H]2CCOC2)C3)n1 [Compound 251]
6.5 | COc1c(C(=O)O)cnn1-c1cccc(-c2cccc(C)c2OCc2cc(C)c3c(c2)CCN(CC2(C)COC2)C3)n1 [Compound 239]
5.3 | COc1c(C(=O)O)cnn1-c1cccc(-c2cccc(C)c2OCc2ccc3c(c2C)CCN(C[C@@H]2CCCCO2)C3)n1 [Compound 198]
4.9 | COc1c(C(=O)O)cnn1-c1cccc(-c2cccc(C)c2OCc2cc(C)c3c(c2)CCN(C2CCCOC2)C3)n1 (stereo not drawn) [Compound 237]
4.6 | CCc1cc(COc2c(C)cccc2-c2cccc(-n3ncc(C(=O)O)c3OC)n2)cc2c1CN(C1COC1)CC2 [Compound 249]
4.6 | COc1c(C(=O)O)cnn1-c1cccc(-c2cccc(C)c2OCc2ccc3c(c2F)CCN(C[C@@H]2COCCO2)C3)n1 [Compound 231]
4.4 | COc1c(C(=O)O)cnn1-c1cccc(-c2cccc(C)c2OCc2ccc3c(c2C)CCN(C[C@H]2COCCO2)CC3)n1 [Compound 203]
3.9 | COc1c(C(=O)O)cnn1-c1cccc(-c2cccc(C)c2OCc2cc(F)c3c(c2)CCN(C[C@H]2CCCCO2)C3)n1 [Compound 229]
3.5 | COc1c(C(=O)O)cnn1-c1cccc(-c2cccc(C)c2OCc2ccc3c(c2C)CCN(CC2CC(F)(F)C2)C3)n1 [Compound 29]
3.3 | COc1c(C(=O)O)cnn1-c1cccc(-c2cccc(C)c2OCc2ccc3c(c2C)CCN(C[C@@H]2CCOC2)C3)n1 [Compound 191]
